In EP1283052A1, “Pharmaceutical composition containing caspase-8 and /or caspase-9 useful for overcoming glucocorticoid- and cancer therapy-induced apoptosis of tumours” (Deutsches Krebsforschungszentrum Stiftung des öffentlichen …, priority 2001, dated 2003):

How the values were obtained:
caspase-3 = experiment: Fluorometric caspase-3 activity assay in carcinoma cells; assay type: cell-based, human; settings: P5 and P693 cells, cisplatin 2 µg/ml alone; Fig. 1c
Method: • (a) Human epidermoid lung cancer cells (P693) were injected into nude mice. At a tumour volume of 500 mm^3 weekly treatment with cisplatin (5mg/kg/week) was started. Cisplatin was injected intraperitoneally in the absence (CIS) or presence (DEX/CIS) of DEX which was added to the drinking water (0.28 mg/L) for the duration of the experiment. […] As controls, tumor growth of xenografts from mice which received neither cisplatin nor DEX (CO) or from mice which received DEX only (DEX) was determined. The tumour volume in each animal was measured at weekly intervals for a period of 5 weeks. Data are presented as the means +/- SD of 6 to 8 animals. • (b) The human cervical carcinoma cell lines HeLa and P5 were γ-irradiated (10 Gy) or treated with cisplatin (2 µg/ml) in the absence (white bars) or presence (black bars) of DEX (1 µM). The percentage of apoptosis was measured in untreated (CO) and stimulated cells by annexin-staining and FACS-analysis at the time points indicated. (c) P5, P693 and human leukemic T cells (CEM) cells were treated with cisplatin (2 µg/ml) in the absence or presence of DEX as indicated. 24 and 48 h following treatment cells were lysed and caspase-3 activity was determined by a fluorescent caspase-3 assay and spectroscopy.

P5 cells = experiment: Specific apoptosis in P5 cells stably transfected with pcDNA3 or FADD-DN; assay type: cell-based, human; settings: 48 h, cisplatin 2 µg/ml; Fig. 2c right
Method: • (a) Left: P5 an CEM cells were treated with cisplatin (1-5 µg/ml) in the absence or presence of DEX (1 µM) as indicated. Proteins were extracted and expression of CD95-L, TRAIL or TNF-α was detected by Western blot analysis. The size of the proteins in kDa is indicated. Right: HeLa and P5 were treated with CD95 agonistic antibody αAPO-1 (CD95, 1 µg/ml), recombinant TRAIL protein (TRAIL, 100 ng/ml) or recombinant TNF-α protein (TNF-α, 100 ng/ml) in the absence (white bars) or presence (black bars) of DEX (1 µM). 24 h later the percentage of apoptosis was determined by annexin-staining and FACS-analysis in untreated (CO) and stimulated cells at the time points indicated. • (b) P693 and CEM cells were treated with cisplatin (2 µg/ml) in the absence or presence of DEX as indicated. 24 and 48 h following treatment cells were lysed and caspase-8 activity was determined by a fluorescent caspase-8 assay and spectroscopy. • (c) P5 cells were stable transfected with empty vector (pcDNA3), or pcDNA3 vector encoding dominant negative FADD protein (FADD-DN). Proteins were extracted from both cell lines and expression of wildtype (WT) and FADD-DN (DN) was detected by Western blot. Left: Stable transfected P5 cells were treated with αAPO-1 (1 µg/ml) and 24 h later apoptosis was determined by staining with annexin/propidium iodide and flow-cytometry. […]

## N.N.[Cl][Pt][Cl] [cisplatin]
caspase-3
  caspase-3 activity: induced 48 h following cisplatin
P5 cells
  cisplatin-induced apoptosis: about 80%
